Test results: patent US9238034B2, “FN14 antagonists and therapeutic uses thereof” (THE TRANSLATIONAL GENOMICS RESEARCH INSTITUTE, priority 2013, dated 2016)
Where two headings read alike, the source gives them in different places.

Biological target: T1, Fn14-TWEAK binding (Homo sapiens, UniProt Q9NP84)
T1 construct: the human Fc fragment-tagged Fn14 extracellular domain (R&D Systems) was captured; purchased R&D Systems (Fn14-Fc); Peprotech (recombinant TWEAK)
T1 sequence (Q9NP84 28-80 limits assumed): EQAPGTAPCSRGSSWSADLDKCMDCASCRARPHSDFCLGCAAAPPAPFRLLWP
Test: Double sandwich ELISA small molecule screening of TWEAK binding to captured Fn14-Fc
Description: Double Sandwich ELISA. sTWEAK and sTWEAK variant proteins were synthesized as described above. The expression level of each IVTT synthesized sTWEAK protein was analyzed by western blot analysis and used in approximately equal amounts in the ELISA. To assay the binding of wild type sTWEAK and sTWEAK variants to Fn14, the human Fc fragment-tagged Fn14 extracellular domain (R&D Systems) was captured in an Immuno 96-microwell white plate by adding 100 μL of 0.025 μg/mL Fn14-Fc to wells coated with goat anti-human Fcγ fragment specific monoclonal antibody. After capture, the wells were washed 3× with Dulbecco's Phosphate Buffered Saline (DPBS) containing 0.05% Tween-20. Unbound sites were blocked by addition of 100 μL of blocking solution containing 0.05% Tween-20, 1% BSA, and 3% normal goat serum (NGS) in DPBS for 1 hr at room temperature. 0.01 μL of sTWEAK or sTWEAK variant made with the human IVTT kit or 2 μL of sTWEAK or sTWEAK variant made with the rabbit IVTT kit was diluted in 100 μL of sample diluent (DPBS+1% BSA+0.005% Tween-20) and then added to the wells for 2 hr followed by addition of 100 μL of 50 ng/mL biotinylated TWEAK detection antibody (R&D Systems) in sample diluent. Following incubation for additional 2 hr at room temperature, wells were washed 3× with DPBS containing 0.05% Tween-20 and bound biotinylated TWEAK antibody was detected by incubation with an HRP-conjugated streptavidin. The total luminescent signal was obtained using Femto ELISA kit (Pierce Biochemical) and compared to the standard curve signal obtained from the binding of 0-4000 pg/mL recombinant TWEAK (Peprotech inc) to Fn14-Fc. Using 5-parameter logistic curve fitting for standard curve analysis (Sigmaplot 11.0, SyStat Software Inc.), binding of sTWEAK or TWEAK variant to Fn14-Fc was determined. The data represents that observed for at least four replicate assays.
The small molecule screening was performed using the ELISA assay described above with minor modifications. Briefly, after capturing Fn14-Fc in the microwell plate, 80 μl of drug solution in sample diluent was added to desired wells and incubated for 2 hrs at room temperature. Subsequently, 20 μL of 2500 pg/mL (5×) TWEAK was added to each well to achieve final TWEAK concentration of 500 pg/mL and incubated for additional 2 hr at room temperature. Bound TWEAK was detected as described in the protocol above. All small molecule inhibitors were screened at 25 μM final concentration (final DMSO concentration of 0.125%) in duplicate. Cyclohexamide, a non-specific small molecule, at 25 μM concentration was used as negative control. The anti-Fn14 antibody ITEM-4, added at 2.5 μg/mL, was used as a positive control for complete blockade of TWEAK binding. Reduction in TWEAK binding due to compound addition or controls was calculated by using standard curve (Separate standard curve was obtained for every screening plate).

[1] = Table 3, first round of screening, 25 μM, average of duplicate, read-out: % Reduction in TWEAK Binding, Average
[2] = Table 3, first round of screening, 25 μM, replicate 1, read-out: % Reduction in TWEAK Binding, Data 1
[3] = Table 3, first round of screening, 25 μM, replicate 2, read-out: % Reduction in TWEAK Binding, Data 2
[4] = Table 5, 25 μM, average of duplicate, read-out: % Reduction in TWEAK Binding, Average
[5] = Table 5, 25 μM, replicate 1, read-out: % Reduction in TWEAK Binding, Data 1
[6] = Table 5, 25 μM, replicate 2, read-out: % Reduction in TWEAK Binding, Data 2
[7] = first round of screening, 25 μM, read-out: average inhibition in TWEAK-Fn14 binding
[8] = Table 4, second screening iteration, 25 μM, average of duplicate, read-out: % Reduction in TWEAK Binding, Average
[9] = Table 4, second screening iteration, 25 μM, replicate 1, read-out: % Reduction in TWEAK Binding, Data 1
[10] = Table 4, second screening iteration, 25 μM, replicate 2, read-out: % Reduction in TWEAK Binding, Data 2

Row | inhibition at 25 µM [1] [%] | inhibition at 25 µM [2] [%] | inhibition at 25 µM [3] [%] | inhibition at 25 µM [4] [%] | inhibition at 25 µM [5] [%] | inhibition at 25 µM [6] [%] | inhibition at 25 µM [7] [%] | inhibition at 25 µM [8] [%] | inhibition at 25 µM [9] [%] | inhibition at 25 µM [10] [%] | inhibition at 25 µM (first round of screening, 25 μM, read-out: single point activities / individual data points, inhibition of the Fn14-TWEAK interaction) [%] | Compound
1 | 11.1 | 10.7 | 11.5 | 11.1 | 10.7 | 11.5 |  |  |  |  |  | CCC(=O)Nc1ccccc1-c1nnc(SCC(=O)Nc2cc(C)ccc2C)[nH]c1=O [Compound F151-0458]
2 | 10.3 | 14.7 | 5.86 | 10.3 | 14.7 | 5.86 |  |  |  |  |  | CCC(=O)Nc1ccccc1-c1nnc(SCC(=O)Nc2ccc(OC)cc2)[nH]c1=O [Compound F151-0485]
3 |  |  |  | 14.6 | 15.5 | 13.7 |  | 14.6 | 15.5 | 13.7 |  | O=C(CSc1ccccc1)Nc1cccc2nsnc12 [Compound F281-0079]
4 |  |  |  | 13 | 14.7 | 11.3 |  | 13 | 14.7 | 11.3 |  | O=C(CSc1nnc(-c2ccccc2)c(-c2ccccc2)n1)Nc1ccccc1 [Compound G003-0114]
5 | 14.2 | 20.3 | 8.06 | 14.2 | 20.3 | 8.06 |  |  |  |  | > 15 | O=C(CSc1nc2c(cnn2-c2ccccc2)c(=O)[nH]1)NCc1ccc(F)cc1 [Compound G873-0031]

More lines, now with the values behind:

Row | Compound | inhibition at 25 µM [1] [%] | inhibition at 25 µM [2] [%] | inhibition at 25 µM [3] [%] | inhibition at 25 µM [4] [%] | inhibition at 25 µM [5] [%] | inhibition at 25 µM [6] [%] | inhibition at 25 µM [7] [%] | inhibition at 25 µM [8] [%] | inhibition at 25 µM [9] [%] | inhibition at 25 µM [10] [%] | inhibition at 25 µM (first round of screening, 25 μM, read-out: single point activities / individual data points, inhibition of the Fn14-TWEAK interaction) [%]
6 | CCOCCCNC(=O)C(=O)NCc1n[nH]c(=O)c2ccccc12 [Compound F044-0058] | 12 | 9.99 | 14.1 | 12 | 9.99 | 14.1 |  |  |  |  | 
7 | O=C(NCc1ccccc1)C(=O)NCc1n[nH]c(=O)c2ccccc12 [Compound F044-0075] | 13 | 13.2 | 12.8 | 13 | 13.2 | 12.8 | < 15 |  |  |  | 
8 | O=C(NCc1ccccc1Cl)C(=O)NCc1n[nH]c(=O)c2ccccc12 [Compound F044-0076] | 10.9 | 8.55 | 13.2 | 10.9 | 8.55 | 13.2 |  | 1.62 | -2.3 | 5.55 | 
9 | O=C(NCc1ccc(F)cc1)C(=O)NCc1n[nH]c(=O)c2ccccc12 [Compound F044-0077] | 11.5 | 12.6 | 10.4 | 11.5 | 12.6 | 10.4 |  |  |  |  | 
10 | O=C(NCc1cccnc1)C(=O)NCc1n[nH]c(=O)c2ccccc12 [Compound F044-0083] | 11 | 11.1 | 10.8 | 11 | 11.1 | 10.8 |  |  |  |  | 
11 | CCC(=O)Nc1ccccc1-c1nnc(SC(CC)C(=O)Nc2cccc(OC)c2)[nH]c1=O (stereo not drawn) [Compound F151-0392] | 11.6 | 9.04 | 14.2 | 11.6 | 9.04 | 14.2 |  |  |  |  | 
12 | CCC(=O)Nc1ccccc1-c1nnc(SC(C)C(=O)Nc2cccc(Cl)c2C)[nH]c1=O (stereo not drawn) [Compound F151-0419] | 10.9 | 8.79 | 13 | 10.9 | 8.79 | 13 |  |  |  |  | 
13 | CCC(=O)Nc1ccccc1-c1nnc(SC(CC)C(=O)Nc2cc(OC)cc(OC)c2)[nH]c1=O (stereo not drawn) [Compound F151-0435] | 15.5 | 18.9 | 12.2 | 15.5 | 18.9 | 12.2 | > 15 |  |  |  | 
